Data from patent publication US12419900B2, “Induction of synthetic lethality with epigenetic therapy” (The Johns Hopkins University, priority 2017, dated 2025).

Key:
[1] = tested on: DU145 prostate cancer cells; assay: Alamar blue cell viability and growth, alisertib x decitabine dose matrix; type: cell-based
Procedure: DU145 prostate cancer cells and A549 lung cancer cells were treated with varying concentrations (0 nM, 10 nM, 50 nM, and 100 nM) of alisertib in addition to varying concentrations of decitabine (0 nM, 50 nM, 100 nM, and 250 nM). Representative data are shown in FIGS. 2A and 2B, as well as the Tables below. […] In each panel, a dose response of each drug alone and in combination was used in Alamar blue cell viability assays. […] Formal synergy analyses were performed using the Bliss independence score (where values greater than zero indicate greater than additive effect). […] The graph of FIG. 2A is a growth curve of the DU145 prostate cancer cells for the agents alone (decitabine and alisertib separately), a vehicle control, and the agents in combination (decitabine and alisertib together). […] Likewise, the graph of FIG. 2B is a growth curve of the A549 lung cancer cells for the agents alone (decitabine and alisertib separately), a vehicle control, and the agents in combination (decitabine and alisertib together). […] The synergy analysis of the combination of decitabine and alisertib was evaluated in a series of 18 cancer cell lines (9 prostate, 1 ovarian, 1 lung, 2 colon, 2 central nervous system, and 3 breast cancer cell lines) and 2 non-cancer cell models.

A549 lung cancer cells = assay: as above; type: cell-based; conditions: Homo sapiens, DAC 0 nM, read-out: Percent Growth Inhibition
Procedure: DU145 prostate cancer cells and A549 lung cancer cells were treated with varying concentrations (0 nM, 10 nM, 50 nM, and 100 nM) of alisertib in addition to varying concentrations of decitabine (0 nM, 50 nM, 100 nM, and 250 nM). Representative data are shown in FIGS. 2A and 2B, as well as the Tables below. […] Formal synergy analyses were performed using the Bliss independence score (where values greater than zero indicate greater than additive effect). […] The graph of FIG. 2A is a growth curve of the DU145 prostate cancer cells for the agents alone (decitabine and alisertib separately), a vehicle control, and the agents in combination (decitabine and alisertib together). […] Likewise, the graph of FIG. 2B is a growth curve of the A549 lung cancer cells for the agents alone (decitabine and alisertib separately), a vehicle control, and the agents in combination (decitabine and alisertib together). […] The synergy analysis of the combination of decitabine and alisertib was evaluated in a series of 18 cancer cell lines (9 prostate, 1 ovarian, 1 lung, 2 colon, 2 central nervous system, and 3 breast cancer cell lines) and 2 non-cancer cell models.

primary hepatocytes = assay: Cell viability and growth, alisertib x decitabine dose matrix; type: cell-based; conditions: Hepatocyte, DAC 0 nM, read-out: Percent Growth Inhibition
Procedure: The synergy analysis of the combination of decitabine and alisertib was evaluated in a series of 18 cancer cell lines (9 prostate, 1 ovarian, 1 lung, 2 colon, 2 central nervous system, and 3 breast cancer cell lines) and 2 non-cancer cell models. A final cumulative Bliss synergy score was calculated based on the sum of the synergy values from each of the 16 combinations of 0 nM, 10 nM, 50 nM, and 100 nM of alsertib together with 0 nM, 50 nM, 100 nM, and 250 nM of decitabine.

DU145 xenograft tumor = assay: In vivo xenograft study of DU145, decitabine and alisertib; design: species or system nude mice
Procedure: Using in vivo xenograft studies of the DU145 prostate cancer cell line, the effect was explored of the treatment of two dose levels of alisertib alone or in combination with decitabine using two different treatment time schedules over a period of seven weeks. First, nude mice were inoculated with DU145 cells that were allowed to incubate for 10-12 days to establish xenograft tumor. The inoculated mice were then treated concomitantly with both a high dose and a low dose of alisertib and decitabine in the first two weeks or primed with decitabine alone for two weeks followed by alisertib alone in the first cycle. The dose of decitabine was held constant at 0.75 mg/kg and given with either low-dose (15 mg/kg) or high-dose (25 mg/kg) alisertib, as indicated in FIG. 4. The cumulative number of doses of decitabine and alisertib was the same in all combination treatment arms in both schedules.

[2] = In vivo toxicity profile of treated mice; conditions: FIGS. 7D and 7E
Excerpt: The toxicity profile of the treated mice was observed, and the animals were weighed over the course of the experiment.

[3] = tested on: residual xenograft tumors; assay: KI-67 and Caspase 3A staining of residual xenograft tumors; type: in vivo, nude mice; conditions: decitabine pre-treatment experiment
Excerpt: The proliferative index and apoptotic fraction in residual xenograft tumors from the decitabine pre-treatment experiment was then examined. Sample cells from each of the vehicle control, decitabine pre-treatment alone, alisertib alone, and decitabine pretreatment in combination with alisertib were stained with either KI-67 or Caspase 3A.

DNMT3B = assay: Western Blot in DU145 cells; type: cell-based; conditions: 100 nM decitabine, 100 nM alisertib
Procedure: DNA methyltransferase enzymes comprise a family of enzymes including DNMT1, DNMT3A, and DNMT3B. […] In this study, Western Blot analyses for DNMT3B were performed on DU145 cell tissue sample treated with vehicle control; 100 nM alisertib alone; 100 nM decitabine alone; and 100 nM of decitabine in combination with 100 nM of alisertib.

DNMT1 = assay: Protein levels in DU145 cells (data not shown); type: cell-based
DNMT3A = assay: Protein levels in DU145 cells (data not shown); type: cell-based
Satellite 2 sequences = assay: Bisulfite genomic sequencing of repetitive elements; type: cell-based; conditions: DU145; vehicle control 45.09%

## COc1cc(Nc2ncc3c(n2)-c2ccc(Cl)cc2C(c2c(F)cccc2OC)=NC3)ccc1C(=O)O [alisertib]
[1]; Aurora kinase inhibitor + decitabine
  growth inhibition of DU-145 cells in combination with decitabine: synergistic growth inhibition
[1]; Homo sapiens, DU-145, DU145, DAC 0 nM, Alisertib 10 nM, read-out: Percent Growth Inhibition
  inhibition at 0.01 µM: 0%
[1]; Homo sapiens, DU-145, DU145, DAC 0 nM, Alisertib 50 nM, read-out: Percent Growth Inhibition
  inhibition at 0.05 µM: 0%
[1]; Homo sapiens, DU-145, DU145, DAC 0 nM, Alisertib 100 nM, read-out: Percent Growth Inhibition
  inhibition at 0.1 µM: 2%
A549 lung cancer cells; Alisertib 10 nM
  inhibition at 0.01 µM: 0%
A549 lung cancer cells; Alisertib 50 nM
  inhibition at 0.05 µM: 0%
A549 lung cancer cells; Alisertib 100 nM
  inhibition at 0.1 µM: 1%
Primary hepatocytes; Alisertib 10 nM
  inhibition at 0.01 µM: 10%
Primary hepatocytes; Alisertib 50 nM
  inhibition at 0.05 µM: 21%
Primary hepatocytes; Alisertib 100 nM
  inhibition at 0.1 µM: 15%
DU145 xenograft tumor; Alisertib high dose 25 mg/kg alone, week 0
  Fold Change in Tumor Size, Mean: 1
DU145 xenograft tumor; Alisertib high dose 25 mg/kg alone, week 1
  Fold Change in Tumor Size, Mean: 1.69
DU145 xenograft tumor; Alisertib high dose 25 mg/kg alone, week 2
  Fold Change in Tumor Size, Mean: 2.35
DU145 xenograft tumor; Alisertib high dose 25 mg/kg alone, week 3
  Fold Change in Tumor Size, Mean: 3.16
DU145 xenograft tumor; Alisertib high dose 25 mg/kg alone, week 4
  Fold Change in Tumor Size, Mean: 5.08
DU145 xenograft tumor; Alisertib high dose 25 mg/kg alone, week 5
  Fold Change in Tumor Size, Mean: 6.47
DU145 xenograft tumor; Alisertib high dose 25 mg/kg alone, week 6
  Fold Change in Tumor Size, Mean: 8.46
DU145 xenograft tumor; Alisertib high dose 25 mg/kg alone, week 7
  Fold Change in Tumor Size, Mean: 9.98
DU145 xenograft tumor; Alisertib low dose 15 mg/kg alone, week 0
  Fold Change in Tumor Size, Mean: 1
DU145 xenograft tumor; Alisertib low dose 15 mg/kg alone, week 1
  Fold Change in Tumor Size, Mean: 1.31
DU145 xenograft tumor; Alisertib low dose 15 mg/kg alone, week 2
  Fold Change in Tumor Size, Mean: 2.25
DU145 xenograft tumor; Alisertib low dose 15 mg/kg alone, week 3
  Fold Change in Tumor Size, Mean: 2.96
DU145 xenograft tumor; Alisertib low dose 15 mg/kg alone, week 4
  Fold Change in Tumor Size, Mean: 4.33
DU145 xenograft tumor; Alisertib low dose 15 mg/kg alone, week 5
  Fold Change in Tumor Size, Mean: 5.12
DU145 xenograft tumor; Alisertib low dose 15 mg/kg alone, week 6
  Fold Change in Tumor Size, Mean: 6.02
DU145 xenograft tumor; Alisertib low dose 15 mg/kg alone, week 7
  Fold Change in Tumor Size, Mean: 7.54
DU145 xenograft tumor; decitabine alone, alisertib high and low dose alone, combinations concurrent or primed, low and high dose alisertib
  tumor growth (FIG. 5A): continued to grow at a significant rate
DU145 xenograft tumor; single agent therapy at the doses tested (decitabine 0.75 mg/kg; alisertib 15 or 25 mg/kg)
  xenograft tissue growth or survival compared to the vehicle control: did not significantly alter
[2]
  AST and ALT (liver function): elevated
[3]
  Caspase 3A staining (apoptosis): almost no alteration
  KI-67 staining (cell proliferation): almost no alteration
DNMT3B
  DNMT3B levels: significantly reduce
DNMT1
  DNMT1 levels: did not significantly affect
DNMT3A
  DNMT3A levels: did not significantly affect
Satellite 2 sequences
  percent of CpG Satellite 2 methylation: 40.6%
